Results published in patent US11078170B2 (Assembly Biosciences, Inc., priority 2017, dated 2021).

These molecules were tested on HBV viral production from HepAD38 cells (assay: Activity of test compounds on viral production from HepAD38 cells (viral load by qPCR of HBV core sequence in supernatant)). Conditions: Hepatitis B virus, 120 h, 5 days incubation, HBV DNA in supernatant by qPCR, top concentration 10 μM, read-out: Viral Load EC50 Activity range.
Assay type: cell-based
Method in brief: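 HepAD38 cells, 50,000/well in tetracycline-free 2% FBS medium, treated 5 days at 37° C. with compound from 10 μM top concentration. HBV DNA in supernatant quantified by TaqMan qPCR of core sequence against DNA standards, relative to DMSO wells; CellTiter-Glo viability read in parallel. EC50/CC50 from four-parameter logistic fit.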
Work on `CC(C)n1cc(-c2ccc([C@H]3C[C@@H](C(=O)Nc4ccc(F)c(Cl)c4)N(C)S(=O)(=O)N3)s2)cn1` [HBV-CSU-292-ISO-I, Cis-N-(3-chloro-4-fluorophenyl)-5-(5-(1-isopropyl-1H-pyrazol-4-yl)thiophen-2-yl)-2-methyl-1,2,6-thiadiazinane-3-carboxamide 1,1-dioxide] yielded an EC50 of under 1 µM.
`CN1[C@H](C(=O)Nc2ccc(F)c(Cl)c2)C[C@H](c2cc(-c3cccnc3)cs2)NS1(=O)=O` [HBV-CSU-167-ISO-I, Cis-N-(3-chloro-4-fluorophenyl)-2-methyl-5-(4-(pyridin-3-yl)thiophen-2-yl)-1,2,6-thiadiazinane-3-carboxamide 1,1-dioxide] was tested, and the EC50 was under 1 µM.
Molecule `CN1[C@@H](C(=O)Nc2ccc(F)c(Cl)c2)C[C@@H](c2cnc(-c3ccccc3)s2)NS1(=O)=O` [HBV-CSU-235-ISO-II, N-(3-Chloro-4-fluorophenyl)-2-methyl-5-(2-phenylthiazol-5-yl)-1,2,6-thiadiazinane-3-carboxamide 1,1-dioxide] has an EC50 of over 5 µM.
Molecule `CN1C(C(=O)Nc2ccc(F)c(Cl)c2)CC(c2cc(-c3ccc(F)cc3)cs2)NS1(=O)=O` (centres unmarked) [HBV-CSU-239] has an EC50 of under 1 µM.
For `CN1[C@@H](C(=O)Nc2ccc(F)c(Cl)c2)C[C@@H](c2cc(-c3cnn(C)c3)cs2)NS1(=O)=O` [HBV-CSU-169-ISO-II, Cis-N-(3-chloro-4-fluorophenyl)-2-methyl-5-(4-(1-methyl-1H-pyrazol-4-yl)thiophen-2-yl)-1,2,6-thiadiazinane-3-carboxamide 1,1-dioxide], the EC50 was 1 to 5 µM.
Work on `CN1[C@H](C(=O)Nc2ccc(F)c(Cl)c2)C[C@H](c2cc(-c3cnn(CCO)c3)cs2)NS1(=O)=O` [HBV-CSU-296-ISO-I, Cis-N-(3-chloro-4-fluorophenyl)-5-(4-(1-(2-hydroxyethyl)-1H-pyrazol-4-yl)thiophen-2-yl)-2-methyl-1,2,6-thiadiazinane-3-carboxamide 1,1-dioxide] yielded an EC50 of under 1 µM.
For `O=C(Nc1ccc(F)c(Cl)c1)C1CC(c2nccs2)NS(=O)(=O)N1CCOCc1ccccc1` (racemic) [HBV-CSU-095, Cis-2-(2-(benzyloxy)ethyl)-N-(3-chloro-4-fluorophenyl)-5-(thiazol-2-yl)-1,2,6-thiadiazinane-3-carboxamide 1,1-dioxide], the EC50 was 1 to 5 µM.
Molecule `CN1C(C(=O)Nc2ccc(F)c(Cl)c2)CC(c2ccc(-c3ccc(F)cc3)s2)NS1(=O)=O` (centres unmarked) [HBV-CSU-238] has an EC50 of under 1 µM.
Molecule `[2H]C([2H])([2H])N1C(C(=O)Nc2ccc(F)c(Cl)c2)CC(c2ccc(Br)s2)NS1(=O)=O` (racemic) [HBV-CSU-370, Cis-5-(5-bromothiophen-2-yl)-N-(3-chloro-4-fluorophenyl)-2-(methyl-d3)-1,2,6-thiadiazinane-3-carboxamide 1,1-dioxide] has an EC50 of under 1 µM.
With `CN1C(C(=O)Nc2ccc(F)c(Cl)c2)CC(c2cccc(OC(F)(F)F)c2)NS1(=O)=O` (racemic) [HBV-CSU-262, Cis-N-(3-Chloro-4-fluorophenyl)-2-methyl-5-(3-(trifluoromethoxy)phenyl)-1,2,6-thiadiazinane-3-carboxamide 1,1-dioxide] the EC50 was under 1 µM.
Work on `CN1[C@@H](C(=O)Nc2ccc(F)c(Cl)c2)C[C@@H](c2ccc(F)c(F)c2)NS1(=O)=O` [HBV-CSU-230-ISO-II, Cis-N-(3-Chloro-4-fluorophenyl)-5-(3,4-difluorophenyl)-2-methyl-1,2,6-thiadiazinane-3-carboxamide 1,1-dioxide] yielded an EC50 of over 5 µM.
`CN1[C@@H](C(=O)Nc2ccc(F)c(Cl)c2)C[C@@H](c2ccc(-c3cccs3)s2)NS1(=O)=O` [HBV-CSU-162-ISO-II, Cis-N-5-([2,2′-bithiophen]-5-yl)-N-(3-chloro-4-fluorophenyl)-2-methyl-1,2,6-thiadiazinane-3-carboxamide 1,1-dioxide] gave an EC50 of 1 to 5 µM.
Work on `CN1[C@@H](C(=O)Nc2ccc(F)c(Cl)c2)C[C@@H](c2ccon2)NS1(=O)=O` [HBV-CSU-055-ISO-II, Cis-N-(3-chloro-4-fluorophenyl)-5-(isoxazol-3-yl)-2-methyl-1,2,6-thiadiazinane-3-carboxamide 1,1-dioxide] yielded an EC50 of over 5 µM.
With `CN1C(C(=O)Nc2ccc(F)c(Cl)c2)CC(c2cc(Cl)c(O)c(Cl)c2)NS1(=O)=O` (stereo not drawn) [HBV-CSU-260, Cis-N-(3-Chloro-4-fluorophenyl)-5-(3,5-dichloro-4-hydroxyphenyl)-2-methyl-1,2,6-thiadiazinane-3-carboxamide 1,1-dioxide] the EC50 was under 1 µM.
Molecule `O=C(Nc1ccc(F)c(Cl)c1)[C@H]1C[C@@H](c2nccs2)NS(=O)(=O)N1CCO` [HBV-CSU-097-ISO-I, Cis-N-(3-Chloro-4-fluorophenyl)-2-(2-hydroxyethyl)-5-(thiazol-2-yl)-1,2,6-thiadiazinane-3-carboxamide 1,1-dioxide] has an EC50 of over 5 µM.
`COc1ccc(CN2C(C(=O)Nc3ccc(F)c(Cl)c3)CC(c3nccs3)NS2(=O)=O)cc1` (stereo not drawn) [HBV-CSU-108, Cis-N-(3-chloro-4-fluorophenyl)-2-(4-methoxybenzyl)-5-(thiazol-2-yl)-1,2,6-thiadiazinane-3-carboxamide 1,1-dioxide] was tested, and the EC50 was over 5 µM.
Molecule `CN1C(C(=O)Nc2ccc(F)c(Cl)c2)CC(c2ncc(-c3cnn(C)c3)s2)NS1(=O)=O` (racemic) [HBV-CSU-177, Cis-N-(3-Chloro-4-fluorophenyl)-2-methyl-5-(5-(1-methyl-1H-pyrazol-4-yl)thiazol-2-yl)-1,2,6-thiadiazinane-3-carboxamide 1,1-dioxide] has an EC50 of under 1 µM.
`CSCCN1[C@@H](C(=O)Nc2ccc(F)c(Cl)c2)C[C@@H](c2nccs2)NS1(=O)=O` [HBV-CSU-109-ISO-I, Cis-N-(3-Chloro-4-fluorophenyl)-2-(2-(methylthio)ethyl)-5-(thiazol-2-yl)-1,2,6-thiadiazinane-3-carboxamide 1,1-dioxide] was tested, and the EC50 was over 5 µM.
`CN1[C@H](C(=O)Nc2ccc(F)c(Cl)c2)C[C@H](c2ncc(-c3ccn(C)n3)s2)NS1(=O)=O` (stereo in doubt) [HBV-CSU-280-ISO-I, Cis-N-(3-Chloro-4-fluorophenyl)-2-methyl-5-(5-(1-methyl-1H-pyrazol-3-yl)thiazol-2-yl)-1,2,6-thiadiazinane-3-carboxamide 1,1-dioxide] was tested, and the EC50 was 1 to 5 µM.
With `CC(C)(C)OCCN1[C@H](C(=O)Nc2ccc(F)c(Cl)c2)C[C@H](c2nccs2)NS1(=O)=O` [HBV-CSU-071-ISO-I, Cis-2-(2-(tert-Butoxy)ethyl)-N-(3-chloro-4-fluorophenyl)-5-(thiazol-2-yl)-1,2,6-thiadiazinane-3-carboxamide 1,1-dioxide] the EC50 was under 1 µM.
Molecule `CCOCCN1C(C(=O)Nc2ccc(F)c(Cl)c2)CC(c2nccs2)NS1(=O)=O` (racemic) [HBV-CSU-142, Cis-N-(3-Chloro-4-fluorophenyl)-2-(2-ethoxyethyl)-5-(thiazol-2-yl)-1,2,6-thiadiazinane-3-carboxamide 1,1-dioxide] has an EC50 of under 1 µM.
For `CN1C(C(=O)Nc2ccc(F)c(Cl)c2)CC(c2ncc(-c3cn[nH]c3)s2)NS1(=O)=O` (racemic) [HBV-CSU-254, Cis-5-(5-(1H-pyrazol-4-yl)thiazol-2-yl)-N-(3-chloro-4-fluorophenyl)-2-methyl-1,2,6-thiadiazinane-3-carboxamide 1,1-dioxide], the EC50 was under 1 µM.
`O=C(Nc1ccc(F)c(Cl)c1)[C@H]1C[C@@H](c2nccs2)NS(=O)(=O)N1` [HBV-CSU-096-ISO-I, Cis-N-(3-Chloro-4-fluorophenyl)-5-(thiazol-2-yl)-1,2,6-thiadiazinane-3-carboxamide 1,1-dioxide] was tested, and the EC50 was over 5 µM.
